Data: patent publication US4374139A, “Levorotatory N-substituted acylmorphinans useful as analgesic agents” (priority 1981, dated 1983)
Where a name gives a salt, the structure may show the parent alone. Read-outs that look alike come from different tables or passages of the source.

Key:
[1] = tested on: mice exposed to intra-abdominally induced chemical pain; assay: animal or person; assay type: in vivo, mouse
Protocol: (§1) The ED50 was the dose which reduced the total number of writhes by 50%. […] A modification of the tail flick test described by Dewey and Harris (in: S. Ehrenpreis and A. Neidle (eds.), Methods in Narcotics Research, Marcel Dekker, Inc., New York, 1975, pp. 101-108) was used to measure the tail flick reaction times following oral or subcutaneous administration of the compounds of formula I of the invention.
(§2) Doses were calculated as the salts of all the compounds. Injection volume was 0.1 ml/10 g body weight. For each test compound, ED 50 values were calculated separately for each test. Log dose regression analysis and Fieller's Theorem were used to compute the ED 50 and its 95 percent confidence limits. The analysis was performed on the tail flick latency scores of all mice that were treated with a test compound. For any given test, the average tail flick latency score of the vehicle control group was calculated and a latency value, Z, was derived from this, as follows: [formula] where the cutoff time was 10 seconds. […] The value of Z was entered as an interpolate into the regression analysis so that an ED50, defined as the dose that increased tail flick latencies by 50 percent of the maximum possible response, could be computed.

[2] = tested on: mice exposed to radiant heat stimulus on the tail; assay: animal or person; assay type: in vivo, male mice (Charles River, CF-1/CD)
Description: as §1
More specifically, groups of 10 male mice (Charles River, CF-1/CD, 18-22 gm) were placed in individual stainless steel, ventilated, cylindrical restrainers with their tails protruding through a hole at one end. The restraining tubes were positioned on a sliding platform so that each mouse, in turn, could be exposed to a high intensity lamp. The rays from the lamp were focused by means of a parabolic reflector directly on the tail. The intensity of the heat was adjusted by means of a rheostat so that untreated mice would responsed in approximately 2 to 4 seconds. When the endpoint response occurred (a sudden twitch of the tail, removing it from the path of the radiant heat stimulus), the experimenter stopped a reaction time clock. In the event that no response occurred within 10 seconds (the cutoff time), the tester terminated the trial and assigned a latency score of 10 seconds for that trial. The reaction time of each mouse was determined before and again 30,60,90 and 120 minutes after treatment.
Each group of 10 mice was treated orally or subcutaneously with vehicle (normal saline) or with logarithmically spaced doses of the test compounds. For most compounds, four dose levels, which were studied in a single test session, were sufficient to provide a satisfactory estimate of the ED50. Occasionally, five or six does levels were needed. […] Because of this, some vehicle control groups and dosed groups consisted of a total of 20 mice, rather than 10.
as §2

[3] = mouse, oral, dose which reduced the total number of writhes by 50%, doses as the salts, read-out: ED50 Writhing Oral
[4] = sc, mouse, subcutaneous, dose which reduced the total number of writhes by 50%, doses as the salts, read-out: ED50 Writhing Subcu.
[5] = mouse, oral, dose that increased tail flick latencies by 50 percent of the maximum possible response, cutoff 10 seconds, doses as the salts, read-out: ED50 Tail Flick Oral
[6] = sc, mouse, subcutaneous, dose that increased tail flick latencies by 50 percent of the maximum possible response, cutoff 10 seconds, doses as the salts, read-out: ED50 Tail Flick Subcu.
[7] = Mus musculus, po, read-out: ED50 Writhing Oral
[8] = Mus musculus, sc, read-out: ED50 Writhing Subcu.
[9] = Mus musculus, po, read-out: ED50 Tail Flick Oral
[10] = Mus musculus, sc, read-out: ED50 Tail Flick Subcu.

Row | Structure (SMILES) | ED50 [1, 3] | ED50 [1, 4] | ED50 [2, 5] | ED50 [2, 6] | ED50 [1, 7] | ED50 [1, 8] | ED50 [2, 9] | ED50 [2, 10]
1 | CC(=O)c1ccc2c(c1)[C@@]13CCCC[C@H]1[C@@H](C2)N(CCC#N)CC3.Cl [(-)-3-acetyl-17-morphinanpropanenitrile hydrochloride] | 4.4 mg/kg | 0.57 mg/kg | 51.2 mg/kg | 6.1 mg/kg | – | – | – | –
2 | CC(=O)c1ccc2c(c1)[C@@]13CCCC[C@H]1[C@@H](C2)N(CC1CCC1)CC3.Cl [(-)-3-acetyl-N-cyclobutylmethylmorphinan hydrochloride] | 5.7 mg/kg | 1.2 mg/kg | 27.6 mg/kg | 4.9 mg/kg | – | – | – | –
3 | CC(=O)c1ccc2c(c1)[C@@]13CCCC[C@H]1[C@@H](C2)N(CC1CC1)CC3.Cl [(-)-1-[N-(cyclopropylmethyl)morphinan-3-yl]-ethanone hydrochloride] | 2.1 mg/kg | 0.18 mg/kg | 1.5 mg/kg | 2.3 mg/kg | – | – | – | –
4 | CN1CC[C@]23CCCC[C@H]2[C@H]1Cc1ccc(C(=O)c2ccccc2)cc13.O=C(O)C(O)C(O)C(=O)O [(-)-(17-methylmorphinan-3-yl)phenylmethanone d-tartrate] | – | – | – | – | 35.5 mg/kg | 22.2 mg/kg | > 200 mg/kg | > 50 mg/kg
5 | CC(=O)c1ccc2c(c1)[C@@]13CCCC[C@H]1[C@@H](C2)N(CC=C(C)C)CC3.O.O=C(O)C(O)C(O)C(=O)O [(-)-1-[17-(3-methyl-2-butenyl)morphinan-3-yl]ethanone d-tartrate monohydrate] | – | – | – | – | 43 mg/kg | 5.9 mg/kg | 115 mg/kg | ~50 mg/kg
6 | CC(=O)c1ccc2c(c1)C[C@@H]1[C@@H]3CCCC[C@]23CCN1C.O=C(O)C(O)C(O)C(=O)O [(-)-2-acetyl-N-methylmorphinan d-tartrate] | – | – | – | – | 22.3 mg/kg | 4 mg/kg | 75 mg/kg | > 50 mg/kg
7 | CCC(=O)c1ccc2c(c1)[C@@]13CCCC[C@H]1[C@@H](C2)N(C)CC3.Cl [(-)-1-(17-methylmorphinan-3-yl)-1-propanone hydrochloride] | 1.9 mg/kg | 0.22 mg/kg | 12 mg/kg | 2.3 mg/kg | – | – | – | –
8 | CC(=O)c1ccc2c(c1)[C@@]13CCCC[C@H]1[C@@H](C2)N(CCc1ccccc1)CC3 [(-)-1-[N-(2-phenethyl)morphinan-3-yl]ethanone d-tartrate hemihydrate] | 1.2 mg/kg | 0.39 mg/kg | 10.4 mg/kg | 1.8 mg/kg | – | – | – | –
9 | CC(O)c1ccc2c(c1)[C@@]13CCCC[C@H]1[C@@H](C2)N(C)CC3 (stereo partly drawn) [(-)-α-17-dimethylmorphinan-3-methanol hydrochloride] | 0.36 mg/kg | 0.24 mg/kg | 1.1 mg/kg | 1.3 mg/kg | – | – | – | –
10 | CN1CC[C@]23CCCC[C@H]2[C@H]1Cc1ccc(C(C)(C)O)cc13 [(-)-α,α-17-trimethylmorphinan-3-methanol hydrochloride] | 2.5 mg/kg | 1.05 mg/kg | 12 mg/kg | 4.3 mg/kg | – | – | – | –
11 | CC(=O)c1ccc2c(c1)[C@@]13CCCC[C@H]1[C@@H](C2)N(C)CC3.O=C(O)C(O)C(O)C(=O)O [(-)-3-acetyl-N-methylmorphinan d-tartrate] | – | – | – | – | 0.5 mg/kg | 0.08 mg/kg | 2 mg/kg | 3.9 mg/kg
